In brackets after ≈: the same amount, converted by molar mass. Where a SMILES comes first, the peptide text is derived from it. Bridges are numbered along the chain shown (N, C = ends). [ ]: non-standard residue; d: D form.
What was measured:
[1] = tested on: Escherichia coli (ATCC 25922)
Method: All peptide variants were synthesized and purified as described previously.[5],[7] They were tested in broth dilution in the presence and absence of 1 × 10^9 human RBCs per mL, 20% of the concentration in human blood, against Escherichia coli, K. pneumoniae, and Staphylococcus aureus. […] The toxicity of the variants was tested by measuring hemolysis as well as cytotoxicity against human WI-38 fibroblast cells.
(§1) Subcultures, prepared by inoculating 25 mL of fresh tryptic soy broth (TSB) with 200 μL of an overnight culture, were grown to log phase (OD600 = 0.3–0.6), after which cell counts were determined by measuring the OD600 (1.0 = 5 × 10^8 CFU/mL for E. coli, 4 × 10^8 CFU/mL for K. pneumoniae, 4 × 10^8 CFU/mL for P. aeruginosa, 1.5 × 10^8 CFU/mL for S. aureus). Bacterial cells were diluted to appropriate concentrations in TSB. We used the following clinical bacterial isolates of Klebsiella pneumoniae in this study: Strains KP6, KP46, NDM-1, KP396, and KP398 have been previously described.[43] ST58 strains C2, C3, and I2 are also described.[41] […] MRSA, […] S. aureus strain, is SAP400, a USA400 strain of community-acquired MRSA. […] The second independent set of K. pneumoniae isolates are previously described.[20],[21]
(§2) The antibiotics were serially diluted by a factor of 2:3 horizontally across 96-well plates from Corning, 25 μL per well. One column was reserved for controls. For the assays performed in the presence of RBC, type O+ human RBCs at 0 or 2.5 × 10^9 cells/mL were added in 50 μL aliquots to all wells. Following a 30-min incubation, 50 μL of TSB, inoculated with 5 × 10^5 CFU/mL, was added to all wells, and plates were incubated overnight at 37 °C. Following overnight incubation at 37 °C, the OD600 was measured (values of less than 0.1 were considered sterilized). To assess bacterial growth in the assays with RBC, the OD600 was measured after a second-day inoculation with 10 μL of solution from the original plate added to 100 μL of sterile TSB followed by overnight incubation.
(§3) Experiments were repeated four to eight times independently, with pairs of replicate measurements on each 96-well plate. After overnight growth, optical densities were measured at 660 nm and the sterilized wells were identified by having O.D. < 0.08. Nonsterilized wells were nearly opaque with OD > 0.6. For each measurement, we recorded the largest dilution that sterilized the bacteria. Statistics are done on dilution numbers, rather than calculated concentrations, because only the former have normal distributions.

[2] = tested on: human RBCs; format: cell-based
Method: Human O+ erythrocytes were obtained from Interstate Blood Bank, Inc. Red blood cells were subjected to four or more cycles of centrifugation at 1000g with resuspension in fresh PBS. Following the final wash step, the supernatant was clear and colorless. RBC concentration was determined using a standard hemocytometer.
Peptide was serially diluted in PBS starting at a concentration of 100 μM. The final volume of peptide in each well was 50 μL. To each well, 50 μL of RBCs in PBS at 2 × 10^8 cells/mL was added. As a positive lysis control, 1% Triton was used. The mixtures were incubated at 37 °C for 1 h, after which they were centrifuged at 1000g for 5 min. After centrifugation, 10 μL of supernatant was transferred to 90 μL of DI H2O in a fresh 96-well plate. The absorbance of released hemoglobin at 410 nm was recorded, and the fractional hemolysis was calculated based on the 100 and 0% lysis controls. At least three independent experiments were performed. Results shown are averages.

[3] = tested on: WI-38 human fibroblast cells; assay: in vitro; format: cell-based
Method: The day before cytotoxicity experiments, the 10,000 cells/well were plated in a 96-well tissue-culture plate. […] To perform the cytotoxicity assay, media was removed from the wells and replaced with peptide solutions. […] The plate was read for SYTOX fluorescence every 5 min for an hour with an excitation wavelength of 504 nm and an emission wavelength of 523 nm. Percent cytotoxicity was calculated at 60 min using the 100 and 0% lysis controls. At least three independent experiments were averaged.

[4] = tested on: K. pneumoniae clinical isolates; assay: microbe, parasite or virus in culture; details: broth dilution; at least three independent measurements, SE about 40%; highest concentration 150 μM
Method: as §1
as §2, with “Following a 30-min incubation, 50 μL of TSB, inoculated with 5 × 10^5 CFU/mL, was added to all wells, and plates were incubated overnight at 37 °C. Following overnight incubation at 37 °C, the OD600 was measured (values of less than 0.1 were considered sterilized).” left out
as §3

[5] = tested on: MRSA SAP400, a USA400 strain; assay: microbe, parasite or virus in culture; details: broth dilution; at least three independent measurements, SE about 40%; highest concentration 150 μM
Method: as §1, §2, §3

[6] = tested on: Pseudomonas aeruginosa clinical isolates; assay: microbe, parasite or virus in culture; details: broth dilution; at least three independent measurements, SE about 40%; highest concentration 150 μM
Method: as §1, §2, §3

[7] = tested on: Acinetobacter baumannii (PDR) Tulane isolate; details: broth dilution; at least three independent measurements, SE about 40%; highest concentration 150 μM

Question: Which “MIC in Broth Dilution, E. coli” value [1] does the source give for `CC(C)C[C@H](NC(=O)[C@H](CCCNC(=N)N)NC(=O)[C@H](CCCNC(=N)N)NC(=O)[C@H](C)NC(=O)[C@H](Cc1c[nH]c2ccccc12)NC(=O)[C@H](CCCNC(=N)N)NC(=O)[C@H](N)CCCNC(=N)N)C(=O)N[C@@H](C)C(=O)N[C@@H](Cc1ccccc1)C(=O)N[C@@H](C)C(=O)N[C@@H](Cc1ccccc1)C(=O)N[C@@H](CCCNC(=N)N)C(=O)N[C@H](CCCNC(=N)N)C(N)=O` [L-CONGA- (R1,R13)] (H-[dR]RWARRLAFAFR[dR]-NH2; N-terminus and C-terminus assumed) here?
Answer: Its value is 26 µM (≈ 45.8 µg/mL).

Question: And the “Hemolysis at 100 μM (fractional hemolysis)” value [2]?
Answer: The value was 0.01.

Question: What about the EC50 [3] of the same compound?
Answer: The EC50 was 134 µM.

Question: With `CC(C)C[C@@H]1NC(=O)[C@H](CCCNC(=N)N)NC(=O)[C@H](CCCNC(=N)N)NC(=O)[C@H](C)NC(=O)[C@H](Cc2c[nH]c3ccccc23)NC(=O)[C@H](CCCNC(=N)N)NC(=O)[C@H](CCCNC(=N)N)NC(=O)CC[C@@H](C(N)=O)NC(=O)[C@H](CCCNC(=N)N)NC(=O)[C@H](CCCNC(=N)N)NC(=O)[C@H](Cc2ccccc2)NC(=O)[C@H](C)NC(=O)[C@H](Cc2ccccc2)NC(=O)[C@H](C)NC1=O` [L-CONGA-E cycl.] (RRWARRLAFAFRRE-NH2; lactam N-14) as the compound, how does the “MIC in Broth Dilution, E. coli” value [1] read?
Answer: Its value is 23 µM (≈ 43.1 µg/mL).

Question: And the “Hemolysis at 100 μM (fractional hemolysis)” value [2]?
Answer: Its value is 0.03.

Question: What does the source list for `CC(C)C[C@@H]1NC(=O)[C@H](CCCNC(=N)N)NC(=O)[C@H](CCCNC(=N)N)NC(=O)[C@H](C)NC(=O)[C@H](Cc2c[nH]c3ccccc23)NC(=O)[C@H](CCCNC(=N)N)NC(=O)[C@H](CCCNC(=N)N)NC(=O)[C@H](CCCNC(=N)N)NC(=O)[C@H](CCCNC(=N)N)NC(=O)[C@H](Cc2ccccc2)NC(=O)[C@H](C)NC(=O)[C@H](Cc2ccccc2)NC(=O)[C@H](C)NC1=O` [L-CONGA-OH cycl.] (cyclo(RRWARRLAFAFRR))?
Answer: MIC in Broth Dilution, E. coli [1]: 13 µM (≈ 22.7 µg/mL); Hemolysis at 100 μM (fractional hemolysis) [2]: 0.07

Question: gentamycin was tested. Which “MIC, KP 6” value [4] did it give?
Answer: The value was greater than 150 µM.

Question: What about the “MIC, KP 46” value [4] of the same compound?
Answer: Its value is 1.6 µM.

Question: And the “MIC, KP 398” value [4]?
Answer: The value was 1.9 µM.

Question: What about the “MIC, KP 2146NDM-1” value [4] of the same compound?
Answer: Its value is greater than 150 µM.

Question: And the “MIC, KP (CRE)” value [4]?
Answer: The value was 5.2 µM.

Question: And the “MIC, KP ATCC 33495” value [4]?
Answer: The value was 1.9 µM.

Question: What about the “MIC, KP ST258 C2” value [4] of the same compound?
Answer: The value was greater than 150 µM.

Question: And the “MIC, KP ST258 C3” value [4]?
Answer: Its value is greater than 150 µM.

Question: And the “MIC, KP ST258 I2” value [4]?
Answer: The value was 8.3 µM.

Question: And the “MIC, KP ST396” value [4]?
Answer: The value was 2.0 µM.

Question: And the “MIC, MRSA USA400” value [5]?
Answer: Its value is greater than 150 µM.

Question: And the “MIC, PA(mucoid)” value [6]?
Answer: Its value is 5.5 µM.

Question: What about the “MIC, PA(non-mucoid)” value [6] of the same compound?
Answer: The value was 8.3 µM.

Question: What about the “MIC, AB (PDR)Tulane” value [7] of the same compound?
Answer: Its value is greater than 150 µM.
